Experimental findings from patent publication US11905274B2, “Receptor inhibitors, pharmaceutical compositions comprising the same and use thereof” (BEIJING TIDE PHARMACEUTICAL CO., LTD., priority 2018, dated 2024) are described below.

Data set [1] can be described thus: Pharmacokinetic (PK) test in mice. Type of data set: in vivo. Conditions: male ICR mice, plasma; for bioavailability / AUC(0-t) / MRT last / half-life / AUC(0-inf) / Cmax: mouse; for bioavailability: PO 20 mg/kg vs IV 3 mg/kg; for AUC(0-inf): read-out: AUCINF_obs; for Cmax: read-out: C0/Cmax. How it is done:
To male ICR mice, the solution of Compound C2 (1 mg/mL) of the present invention and the solution of control Compound A (1 mg/mL) were administered intravenously (IV) and intragastrically (PO), in both of which the vehicle system is DMSO, solutol and deionized water (1:2:17, v:v:v). For Compound C2 and Compound A, the IV and PO dosages were 3 mg/kg and 20 mg/kg, respectively. For IV administration, blood was collected from the ophthalmic venous plexus of the mice at (0) horn before the administration and at 0.083, 0.25, 0.5, 1, 2, 4, 6, 8, and 24 horns after the administration, while for PO administration, blood was collected from ophthalmic venous plexus of the mice at (0) hour before the administration and at 0.25, 0.5, 1, 2, 4, 6, 8, and 24 horns after the administration. For Compound C2, a 0.05 mL blood sample was taken at each time point, while for Compound A, a 0.03 mL blood sample was taken at each time point. The collected blood sample was placed in a clean sample tube containing EDTA-K2 (4%), and centrifuged at 5000 rpm at 4° C. for 5 minutes. The resulting plasma was transferred to another clean sample tube, and stored at −20° C. LC-MS/MS analysis was performed on the plasma samples. The pharmacokinetic parameters were calculated using WinNonlin 6.3 software.

Data set [2] deals with AT2 Receptor (AT2R) (Homo sapiens (Human), UniProt P50052). The experiment in a line: Inhibitory activity on AT2 receptor (Tag-lite HTRF, Tb-labeled AT2R cells, angiotensin receptor red agonist). Type of data set: binding. The note with it: 1 h at room temperature. On the technique in general: In TR-FRET formats the signal depends on donor and acceptor labels being close together.
Sequence of AT2 Receptor (AT2R) (P50052 whole entry): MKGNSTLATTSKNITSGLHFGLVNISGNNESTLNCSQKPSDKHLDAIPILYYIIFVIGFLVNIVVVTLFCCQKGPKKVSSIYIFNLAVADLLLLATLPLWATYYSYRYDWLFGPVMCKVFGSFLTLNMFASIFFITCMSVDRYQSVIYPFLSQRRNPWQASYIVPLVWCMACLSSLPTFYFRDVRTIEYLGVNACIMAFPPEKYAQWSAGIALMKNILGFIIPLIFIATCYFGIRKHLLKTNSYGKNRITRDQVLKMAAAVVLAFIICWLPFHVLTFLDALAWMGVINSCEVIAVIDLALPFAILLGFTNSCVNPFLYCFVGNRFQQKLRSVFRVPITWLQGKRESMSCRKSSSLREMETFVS

Data set [3] deals with AT1 Receptor (AT1R) (Homo sapiens (Human), UniProt P30556). The experiment in a line: Inhibitory activity on AT1 receptor (Tag-lite HTRF, Tb-labeled AT1R cells, angiotensin receptor red agonist). Conditions: 1 h at room temperature. Type of data set: binding.
Sequence of AT1 Receptor (AT1R) (P30556 whole entry): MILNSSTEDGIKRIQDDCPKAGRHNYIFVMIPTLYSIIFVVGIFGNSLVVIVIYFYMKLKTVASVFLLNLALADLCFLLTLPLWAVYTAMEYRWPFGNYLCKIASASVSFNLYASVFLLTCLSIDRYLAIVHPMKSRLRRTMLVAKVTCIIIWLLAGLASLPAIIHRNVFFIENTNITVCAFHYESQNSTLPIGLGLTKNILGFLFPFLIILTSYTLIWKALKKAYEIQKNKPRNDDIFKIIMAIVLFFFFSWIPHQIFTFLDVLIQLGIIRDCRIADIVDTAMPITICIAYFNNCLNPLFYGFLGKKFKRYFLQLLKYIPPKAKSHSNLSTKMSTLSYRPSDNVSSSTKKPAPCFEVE

Read-outs that look alike come from different tables or passages of the source.

Broadly, the bioavailability is the share of a dose that reaches the circulation, judged against a reference dose that is usually intravenous. Read a low bioavailability as little systemic uptake. By AUC(0-t) is commonly meant the area under the concentration-time curve up to a stated or last time point. Low readings indicate less exposure, high ones more exposure. The term MRT last denotes a mean duration of stay, worked out from the concentration-time curve. By half-life is commonly meant how long it takes for the measured level to halve. In data set [1] (IV, 3 mg/kg), `O=C(O)[C@@H]1CN(C(=O)N(c2ccccc2)c2ccccc2)CCN1C(=O)N(c1ccccc1)c1ccccc1` [A, reference compound] showed a CL_obs of 41.8933 mL/min/kg, an AUC(0-t) of 1190 ng·h/mL, an MRT last of 0.29 h and a half-life of 0.5 h. In data set [1] (IV, 3 mg/kg), the AUC(0-inf) was 1200 ng·h/mL and the Cmax was 7170 ng/mL. The bioavailability in data set [1] is 6.26%. Moreover, in data set [1] (PO, 20 mg/kg), the AUC(0-t) came to 495 ng·h/mL, the mean residence time (MRT last) was determined as 1.06 h, the half-life was 0.872 h and the AUC(0-inf) came out at 499 ng·h/mL. In addition, the Cmax in data set [1] (PO, 20 mg/kg) amounted to 366 ng/mL.

By IC50 is commonly meant the concentration needed to halve the response being measured. As for `O=C(O)[C@@H]1CN(C(=O)N2c3ccccc3C=Cc3ccccc32)CCN1C(=O)N(c1ccccc1)c1ccccc1` [Compound C1, (S)-4-(5H-dibenzo[b,f]azepine-5-carbonyl)-1-(diphenylcarbamoyl) piperazine-2-carboxylic acid], the IC50 in data set [2] was 18.8 nM; in data set [3] it was greater than 10000 nM.

Turning to `O=C(O)[C@@H]1CN(C(=O)N(c2ccccc2)c2ccccc2)CCN1C(=O)N1c2ccccc2C=Cc2ccccc21` [Compound C2, (S)-1-(5H-dibenzo[b,f]azepine-5-carbonyl)-4-(diphenylcarbamoyl) piperazine-2-carboxylic acid], in data set [2], the IC50 is 20.3 nM. In data set [1] (IV, 3 mg/kg), this compound gave a CL_obs of 1.010 mL/min/kg, an AUC(0-t) of 49000 ng·h/mL, an MRT last of 1.9 h and a half-life of 4.51 h. In data set [1] (IV, 3 mg/kg), the AUC(0-inf) was 49500 ng·h/mL and the Cmax was 43400 ng/mL. Besides, the bioavailability in data set [1] worked out at 45.7%. Further, in data set [1] (PO, 20 mg/kg), the AUC(0-t) was found to be 151000 ng·h/mL, the MRT last worked out at 2.34 h, the half-life was 3.05 h and the AUC(0-inf) is 151000 ng·h/mL. The Cmax in data set [1] (PO, 20 mg/kg) was found to be 62000 ng/mL. Also, the IC50 in data set [3] is greater than 10000 nM.

On to `O=C(O)[C@@H]1CN(C(=O)N2c3ccccc3C=Cc3ccccc32)CCN1C(=O)N1c2ccccc2C=Cc2ccccc21` [Compound C3, (S)-1,4-bis(5H-dibenzo[b,f]azepine-5-carbonyl) piperazine-2-carboxylic acid], for which the IC50 in data set [2] is 32.5 nM; in data set [3], greater than 10000 nM.

As for `O=C(O)[C@@H]1CN(C(=O)C(c2ccccc2)c2ccccc2)CCN1C(=O)N1c2ccccc2C=Cc2ccccc21` [Compound C4, (S)-1-(5H-dibenzo [b,f]azepine-5-carbonyl)-4-(2,2-diphenylacetyl) piperazine-2-carboxylic acid], the IC50 is 45.1 nM in data set [2] and greater than 10000 nM in data set [3].

On to `O=C(O)[C@@H]1CN(C(=O)N2c3ccccc3C=Cc3ccccc32)CCN1C(=O)C(c1ccccc1)c1ccccc1` [Compound C5, (S)-4-(5H-dibenzo [b,f]azepine-5-carbonyl)-1-(2,2-diphenylacetyl) piperazine-2-carboxylic acid], for which the IC50 was 6.47 nM in data set [2] and greater than 10000 nM in data set [3].

For the compound `O=C(O)[C@@H]1CN(C(=O)N2c3ccccc3Sc3ccccc32)CCN1C(=O)C(c1ccccc1)c1ccccc1` [Compound C12, (S)-1-(2,2-diphenylacetyl)-4-(10H-phenothiazine-10-carbonyl) piperazine-2-carboxylic acid], the IC50 in data set [2] is 43.7 nM; in data set [3] it was greater than 10000 nM.

For the compound `O=C(O)[C@@H]1CN(C(=O)N(c2ccccc2)c2ccccc2)CCN1C(=O)N1c2ccccc2Sc2ccccc21` [Compound C20, (S)-4-(diphenylcarbamoyl)-1-(10H-phenothiazine-10-carbonyl)piperazine-2-carboxylic acid], the IC50 in data set [2] was 36.7 nM; in data set [3], greater than 10000 nM.

Take `CN(C)S(=O)(=O)NC(=O)[C@@H]1CN(C(=O)N(c2ccccc2)c2ccccc2)CCN1C(=O)N1c2ccccc2C=Cc2ccccc21` [Compound C33, (S)-4-(5H-dibenzo[b,f]azepine-5-carbonyl)-N^3—(N,N-dimethylsulphamoyl)-N^1,N^1-phenylpiperazine-1,3-dicarboxamide]: the 50% inhibitory concentration (IC50) in data set [2] is 35.9 nM; in data set [3], greater than 10000 nM.

Regarding `O=C(O)[C@@H]1CN(C(=O)N2c3ccccc3Sc3ccccc32)CCN1C(=O)N(c1ccccc1)c1ccccc1` [Compound C44, (S)-1-(diphenylcarbamoyl)-4-(10H-phenothiazine-10-carbonyl)piperazine-2-carboxylic acid], the IC50 was 62.6 nM in data set [2] and greater than 10000 nM in data set [3].

As to `O=C(O)[C@H]1CN(C(=O)N2c3ccccc3C=Cc3ccccc32)CCN1C(=O)N(c1ccccc1)c1ccccc1` [Compound C45, (R)-4-(5H-dibenzo[b,f]azepine-5-carbonyl)-1-(diphenylcarbamoyl) piperazine-2-carboxylic acid], the IC50 in data set [2] is 55.5 nM; in data set [3], greater than 10000 nM.

With `O=C(O)[C@H]1CN(C(=O)N(c2ccccc2)c2ccccc2)CCN1C(=O)N1c2ccccc2C=Cc2ccccc21` [Compound C46, (R)-1-(5H-dibenzo [b,f]azepine-5-carbonyl)-4-(diphenylcarbamoyl) piperazine-2-carboxylic acid], the values for the IC50 in data set [2] and in data set [3] were 54.5 nM and greater than 10000 nM, respectively.

Compound `COC1=Cc2ccccc2N(C(=O)N2CCN(C(=O)N(c3ccccc3)c3ccccc3)C[C@H]2C(=O)O)c2ccccc21` [Compound C50, (S)-4-(diphenylcarbamoyl)-1-(10-methoxy-5H-dibenzo[b,f]azepine-5-carbonyl) piperazine-2-carboxylic acid] came in with an IC50 in data set [3] greater than 10000 nM.

For the compound `O=C1Cc2ccccc2N(C(=O)N2CCN(C(=O)N(c3ccccc3)c3ccccc3)C[C@H]2C(=O)O)c2ccccc21` [Compound C77, (S)-4-(diphenylcarbamoyl)-1-(10-oxo-10,11-dihydro-5H-dibenzo[b,f]azepine-5-carbonyl)piperazine-2-carboxylic acid], the IC50 is 32.3 nM in data set [2] and greater than 10000 nM in data set [3].

`O=C(O)[C@@H]1CN(C(=O)N(c2ccccc2)c2ccccc2)CCN1C(=O)C1(c2ccccc2)CCCCC1` [Compound C80, (S)-4-(diphenylcarbamoyl)-1-(1-phenylcyclohexanecarbonyl) piperazine-2-carboxylic acid]: the values for the IC50 in data set [2] and in data set [3] were 12.7 nM and greater than 10000 nM, respectively.

As for `O=C(O)[C@@H]1CN(C(=O)C(c2ccccc2)c2ccccc2)CCN1C(=O)C1(c2ccccc2)CCCCC1` [Compound C81, (S)-4-(2,2-diphenylacetyl)-1-(1-phenylcyclohexanecarbonyl) piperazine-2-carboxylic acid], the IC50 in data set [3] is greater than 10000 nM.

In data set [3], `COc1ccccc1N(C(=O)N1CCN(C(=O)N2c3ccccc3CC(=O)c3ccccc32)[C@H](C(=O)O)C1)c1ccccc1OC` [Compound C94, (S)-4-(bis(2-methoxylphenyl)carbamoyl)-1-(10-oxo-10,11-dihydro-5H-dibenzo [b,f]azepine-5-carbonyl)piperazine-2-carboxylic acid] came in with an IC50 greater than 10000 nM.

`Cc1ccc(CN(C(=O)N2CCN(C(=O)N(c3ccccc3)c3ccccc3)[C@H](C(=O)O)C2)C2CC2)s1` [Compound C145, (S)-4-(cyclopropyl((5-methylthiophen-2-yl)methyl)carbamoyl)-1-(diphenylcarbamoyl) piperazine-2-carboxylic acid] yielded an IC50 in data set [2] of 3.61 nM.

As for `Cc1cc(CN(C(=O)N2CCN(C(=O)N(c3ccccc3)c3ccccc3)[C@H](C(=O)O)C2)C2CC2)cs1` [Compound C146, (S)-4-(cyclopropyl((5-methylthiophen-3-yl)methyl)carbamoyl)-1-(diphenylcarbamoyl) piperazine-2-carboxylic acid], the concentration for half-maximal inhibition (IC50) in data set [2] is 14.2 nM.

`CS(=O)(=O)NC(=O)[C@@H]1CN(C(=O)N2c3ccccc3CC(=O)c3ccccc32)CCN1C(=O)N(c1ccccc1)c1ccccc1` [Compound C149] yielded an IC50 in data set [2] of 290 nM.

Regarding `CCN(Cc1csc(Cl)c1)C(=O)N1CCN(C(=O)N(c2ccccc2)c2ccccc2)[C@H](C(=O)O)C1` [Compound C150, (S)-4-(((5-chlorothiophene-3-yl)methyl)(ethyl)carbamoyl)-1-(diphenylcarbamoyl) piperazine-2-carboxylic acid], in data set [2], the IC50 was 26.1 nM.

In data set [2], `Cc1ccc(CN(C(=O)N2CCN(C(=O)C(c3ccccc3)c3ccccc3)[C@H](C(=O)O)C2)C2CC2)s1` [Compound C153, (S)-4-(cyclopropyl((5-methylthiophen-2-yl)methyl)carbamoyl)-1-(2,2-diphenylacetyl)piperazine-2-carboxylic acid] returned a 50% inhibitory concentration (IC50) of 5.47 nM.
